Measured values: PMC10580381 (ACS Pharmacology & Translational Science, 2023)
Values joined by “and” are separate entries in the source; they are usually repeats but may differ in a detail not shown here. Equal values may be shown once.

Legend:
[1] = test system: NSCLC cell lines; test: cells; type: cell-based; conditions: Homo sapiens, read-out: effect on cancer cell viability
[2] = test system: H1975 cells; conditions: flunarizine alone 5 or 10 μM, 24 h (Figure 3)
Protocol: Afterward, ethanol was discarded, and the fixed cells were incubated with RNase I (25 μg/mL) at 37 °C for 30 min. Then, the cells were stained with propidium iodide (50 μg/mL) at room temperature for at least 1 h and analyzed by using a flow cytometer (BD LSRFortessa; BD Biosciences). At least 10,000 events were acquired for each sample. ModFit software (Verity Software House, Topsham, Maine) was used to analyze the cell cycle profile.

[3] = test system: p27^Kip1 (CDKN1B); test: Real-time PCR of p27^Kip1 expression in H1975; type: cell-based, human; conditions: H1975, 24 h, flunarizine 2.5, 5, or 10 μM or SAHA 0.25, 0.5, or 1 μM; all concentrations tested
Protocol: Reverse transcription was performed using 1 μg of total RNA sample with the PrimeScript First Strand cDNA Synthesis Kit (TaKaRa Biomedical Technology) at 37 °C for 10 min. The cDNA was then amplified by real-time PCR to determine the relative expression of p27^Kip1 and BIM using the KAPA SYBR FAST qPCR kit (KapaBiosystems, Wilmington, Massachusetts) with a LightCycler 480 Instrument I instrument (Roche Applied Science, Indianapolis, Indiana). The house-keeping gene GAPDH was also measured for normalization. Specific primer sequences used in the PCR reactions are p27^Kip1, forward 5′-[…]-3′ and reverse 5′-[…]-3′; Bim, forward 5′-[…]-3′ and reverse 5′-[…]-3′; and GAPDH, forward 5′-[…]-3′ and reverse 5′-[…]-3′. The PCR temperature program was set at 95 °C for 5 min, followed by 35 cycles of 95 °C for 10 s and 60 °C for 10 s. The fluorescent signal was detected at the end of the PCR elongation step of every cycle to keep track of the amount of amplified DNA. ΔCt was calculated by subtracting the Ct of GAPDH from the Ct of Bim or p27^Kip1. Fold change in gene expression was analyzed by the 2^–ΔΔCt method.

[4] = test system: E-cadherin; test: Western blot of E-cadherin in H1975 cells; type: cell-based, human; conditions: concentration-dependent
[5] = test system: vimentin; test: Western blot of vimentin in H1975 cells; type: cell-based, human; conditions: concentration-dependent
[6] = test system: H1975 cells; test: Wound healing assay; type: cell-based, human; conditions: up to 48 h
Description: After the cells had grown to about 80% confluence, a physical gap was created on the cell monolayer by scratching with a pipet tip. […] The scratch closure rate was estimated by the change in the wound width over time. It was presented as the relative gap width (%) by dividing the average distance between the two margins of the scratch at the indicated time by the initial distance at the start of the wound healing assay.

[7] = test system: H820 cells
[8] = test system: BEAS-2B
[9] = test system: H1650 cells; test: cells; conditions: Homo sapiens, NCI-H1650, read-out: cell viability (%)
[10] = target: recombinant human HDAC1 (Homo sapiens, UniProt Q13547); test: biochemical
Sequence of recombinant human HDAC1 (Q13547 whole entry): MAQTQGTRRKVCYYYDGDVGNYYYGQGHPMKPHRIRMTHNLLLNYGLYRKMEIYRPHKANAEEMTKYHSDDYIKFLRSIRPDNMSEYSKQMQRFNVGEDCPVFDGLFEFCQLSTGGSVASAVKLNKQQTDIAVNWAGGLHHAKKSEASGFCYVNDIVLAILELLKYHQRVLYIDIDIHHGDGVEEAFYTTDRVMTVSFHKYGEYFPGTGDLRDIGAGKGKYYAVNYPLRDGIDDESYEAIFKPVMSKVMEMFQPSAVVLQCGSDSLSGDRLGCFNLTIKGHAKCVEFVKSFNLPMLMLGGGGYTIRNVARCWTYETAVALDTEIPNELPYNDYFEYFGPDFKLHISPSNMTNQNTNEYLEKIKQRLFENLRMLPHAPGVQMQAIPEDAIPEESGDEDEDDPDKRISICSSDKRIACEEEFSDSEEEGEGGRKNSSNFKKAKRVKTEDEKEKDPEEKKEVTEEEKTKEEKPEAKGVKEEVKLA

[11] = target: T1, recombinant human HDAC6 (Homo sapiens, UniProt Q9UBN7); test: biochemical; conditions: IC50 HDAC6, recombinant HDAC6, mean ± SD, three independent experiments
T1 sequence (Q9UBN7 1-1215): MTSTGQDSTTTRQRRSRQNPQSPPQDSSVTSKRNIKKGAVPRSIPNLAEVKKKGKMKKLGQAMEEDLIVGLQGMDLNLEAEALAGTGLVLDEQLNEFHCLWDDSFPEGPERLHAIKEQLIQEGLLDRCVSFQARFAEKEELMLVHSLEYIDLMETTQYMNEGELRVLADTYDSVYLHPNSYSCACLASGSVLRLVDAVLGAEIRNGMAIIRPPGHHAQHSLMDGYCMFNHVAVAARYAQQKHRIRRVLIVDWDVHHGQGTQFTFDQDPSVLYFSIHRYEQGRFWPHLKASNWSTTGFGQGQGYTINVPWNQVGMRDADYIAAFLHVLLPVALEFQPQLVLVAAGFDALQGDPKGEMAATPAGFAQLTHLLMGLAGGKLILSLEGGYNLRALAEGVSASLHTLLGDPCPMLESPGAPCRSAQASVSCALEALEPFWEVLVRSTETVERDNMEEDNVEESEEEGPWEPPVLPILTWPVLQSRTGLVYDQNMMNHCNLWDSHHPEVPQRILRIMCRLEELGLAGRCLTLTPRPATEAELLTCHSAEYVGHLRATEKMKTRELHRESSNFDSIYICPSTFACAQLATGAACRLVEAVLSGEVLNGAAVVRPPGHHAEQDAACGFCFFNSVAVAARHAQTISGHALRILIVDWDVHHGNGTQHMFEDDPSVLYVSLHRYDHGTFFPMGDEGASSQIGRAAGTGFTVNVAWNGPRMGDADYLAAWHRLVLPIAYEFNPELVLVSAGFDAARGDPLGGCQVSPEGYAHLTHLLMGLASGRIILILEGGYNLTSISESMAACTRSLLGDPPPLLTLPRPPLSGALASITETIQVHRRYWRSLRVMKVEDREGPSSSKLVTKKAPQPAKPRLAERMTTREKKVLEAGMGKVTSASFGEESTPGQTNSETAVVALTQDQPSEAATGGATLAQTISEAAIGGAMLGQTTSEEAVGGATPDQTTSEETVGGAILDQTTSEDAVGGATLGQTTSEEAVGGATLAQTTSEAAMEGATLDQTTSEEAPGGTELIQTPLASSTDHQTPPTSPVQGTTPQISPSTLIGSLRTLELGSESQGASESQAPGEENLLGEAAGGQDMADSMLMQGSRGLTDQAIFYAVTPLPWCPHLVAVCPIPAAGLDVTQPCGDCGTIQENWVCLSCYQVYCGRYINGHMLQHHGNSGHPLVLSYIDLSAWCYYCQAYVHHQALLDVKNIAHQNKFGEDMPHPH

Fc1ccc(C(c2ccc(F)cc2)N2CCN(C/C=C/c3ccccc3)CC2)cc1 [flunarizine] was tested, and the viability at 20 µM [1] was ≤ 25%, the “G1 cell cycle arrest” value [2] was “induce G1 cell cycle arrest” and the “p27^Kip1 expression” value [3] was “significantly increase”. For the same compound, the E-cadherin expression [4] was “upregulate”, the vimentin expression [5] was “downregulate” and the cancer cell migration [6] was “inhibited the cell migration ability”. The viability [7] was 89 ± 5%, the “effect on cell viability of BEAS-2B” value [8] was “did not appreciably affect the cell viability” and the viability at 2.5 µM [9] was 93 ± 4%. For the same compound, the viability at 5 µM [9] was 92 ± 5%, the viability at 10 µM [9] was 87 ± 6% and the IC50 [10] was 0.285 ± 0.015 µM. The IC50 [11] was ~5.6 µM and 5.6 µM.
